Measured values taken from PMC5298231, “The Malaria Parasite's Lactate Transporter PfFNT Is the Target of Antiplasmodial Compounds Identified in Whole Cell Phenotypic Screens” (PLoS Pathogens, 2017).
Read-outs that look alike come from different tables or passages of the source.

Test system: erythrocytes infected with 3D7 trophozoites
Type: cell-based, Plasmodium falciparum
Conditions: 6 μM

COc1ccc2c(c1)OC(O)(C(F)(F)C(F)(F)F)CC2=O (stereo not drawn) [MMV007839]
ESFG log2 ratio (+MMV007839/-MMV007839) (Av 1hr): 0.4045
EVGG log2 ratio (+MMV007839/-MMV007839) (Av 1hr): 0.01776
Erythrose 4-phosphate log2 ratio (+MMV007839/-MMV007839) (Av 1hr): -0.3514
FAD log2 ratio (+MMV007839/-MMV007839) (Av 1hr): -0.08791
FMN log2 ratio (+MMV007839/-MMV007839) (Av 1hr): -0.2425
Farnesyl diphosphate log2 ratio (+MMV007839/-MMV007839) (Av 1hr): -0.0002912
Folate log2 ratio (+MMV007839/-MMV007839) (Av 1hr): -0.2316
Fructose-1-6-bisphosphate log2 ratio (+MMV007839/-MMV007839) (Av 1hr): 1.122
Fructose-6-Phosphate log2 ratio (+MMV007839/-MMV007839) (Av 1hr): 0.08818
GDP log2 ratio (+MMV007839/-MMV007839) (Av 1hr): -0.6846
GDP-mannose log2 ratio (+MMV007839/-MMV007839) (Av 1hr): 0.01571
GMP log2 ratio (+MMV007839/-MMV007839) (Av 1hr): -1.125
GTP log2 ratio (+MMV007839/-MMV007839) (Av 1hr): -0.5732
Geranylgeranyl pyrophosphate log2 ratio (+MMV007839/-MMV007839) (Av 1hr): -0.5786
Gluconate log2 ratio (+MMV007839/-MMV007839) (Av 1hr): 0.1947
Glucose-6-Phosphate log2 ratio (+MMV007839/-MMV007839) (Av 1hr): -0.1863
Glutamate log2 ratio (+MMV007839/-MMV007839) (Av 1hr): 0.1005
Glutamine log2 ratio (+MMV007839/-MMV007839) (Av 1hr): 0.7703
Glutathione disulfide log2 ratio (+MMV007839/-MMV007839) (Av 1hr): 0.1943
Glutathione log2 ratio (+MMV007839/-MMV007839) (Av 1hr): -0.1919
Glyceraldehyde 3-phosphate log2 ratio (+MMV007839/-MMV007839) (Av 1hr): -0.7606
Glycerone phosphate log2 ratio (+MMV007839/-MMV007839) (Av 1hr): 0.5926
HLD log2 ratio (+MMV007839/-MMV007839) (Av 1hr): -0.3486
HVDD log2 ratio (+MMV007839/-MMV007839) (Av 1hr): -0.6691
Histidine log2 ratio (+MMV007839/-MMV007839) (Av 1hr): 0.5758
Homoserine log2 ratio (+MMV007839/-MMV007839) (Av 1hr): 0.3097
Hydroxy-L-proline log2 ratio (+MMV007839/-MMV007839) (Av 1hr): 0.2443
Hypoxanthine log2 ratio (+MMV007839/-MMV007839) (Av 1hr): 0.3704
IDP log2 ratio (+MMV007839/-MMV007839) (Av 1hr): -0.1758
IMP log2 ratio (+MMV007839/-MMV007839) (Av 1hr): -0.02277
Inosine log2 ratio (+MMV007839/-MMV007839) (Av 1hr): 0.5137
Isoleucine log2 ratio (+MMV007839/-MMV007839) (Av 1hr): 0.3056
LD log2 ratio (+MMV007839/-MMV007839) (Av 1hr): 0.3825
Lactate log2 ratio (+MMV007839/-MMV007839) (Av 1hr): 2.358
Leucine log2 ratio (+MMV007839/-MMV007839) (Av 1hr): 0.1553
Lysine log2 ratio (+MMV007839/-MMV007839) (Av 1hr): 1.68
Malate log2 ratio (+MMV007839/-MMV007839) (Av 1hr): 0.1358
Mannitol log2 ratio (+MMV007839/-MMV007839) (Av 1hr): 0.0108
Methionine log2 ratio (+MMV007839/-MMV007839) (Av 1hr): 0.2615
Myristic acid log2 ratio (+MMV007839/-MMV007839) (Av 1hr): 0.2261
N-Acetyl-glutamate log2 ratio (+MMV007839/-MMV007839) (Av 1hr): -0.007377
N-Carbamoyl-L-aspartate log2 ratio (+MMV007839/-MMV007839) (Av 1hr): -1.378
NAD+ log2 ratio (+MMV007839/-MMV007839) (Av 1hr): 0.03204
NADH log2 ratio (+MMV007839/-MMV007839) (Av 1hr): -1.36
NADP+ log2 ratio (+MMV007839/-MMV007839) (Av 1hr): -0.2617
Octoluse Bisphosphate log2 ratio (+MMV007839/-MMV007839) (Av 1hr): 1.912
Ornithine log2 ratio (+MMV007839/-MMV007839) (Av 1hr): 0.2172
Orotate log2 ratio (+MMV007839/-MMV007839) (Av 1hr): -1.216
Orotidine 5-phosphate log2 ratio (+MMV007839/-MMV007839) (Av 1hr): -1.5
Orotidine log2 ratio (+MMV007839/-MMV007839) (Av 1hr): -0.4366
PAEF log2 ratio (+MMV007839/-MMV007839) (Av 1hr): -0.4364
PAVH log2 ratio (+MMV007839/-MMV007839) (Av 1hr): -1.011
PD log2 ratio (+MMV007839/-MMV007839) (Av 1hr): 0.2765
PDAV log2 ratio (+MMV007839/-MMV007839) (Av 1hr): 0.344
PE log2 ratio (+MMV007839/-MMV007839) (Av 1hr): 1.21
PEE log2 ratio (+MMV007839/-MMV007839) (Av 1hr): 0.2418
PHF log2 ratio (+MMV007839/-MMV007839) (Av 1hr): 1.069
PPVQ log2 ratio (+MMV007839/-MMV007839) (Av 1hr): 0.02129
PVNF log2 ratio (+MMV007839/-MMV007839) (Av 1hr): -0.3384
PVQ log2 ratio (+MMV007839/-MMV007839) (Av 1hr): 0.8749
PVQA log2 ratio (+MMV007839/-MMV007839) (Av 1hr): -0.7385
Pantothenate log2 ratio (+MMV007839/-MMV007839) (Av 1hr): -0.01312
Phenylalanine log2 ratio (+MMV007839/-MMV007839) (Av 1hr): 0.1979
Phosphoenolpyruvate log2 ratio (+MMV007839/-MMV007839) (Av 1hr): 0.299
Pipecolate log2 ratio (+MMV007839/-MMV007839) (Av 1hr): 0.4539
Proline log2 ratio (+MMV007839/-MMV007839) (Av 1hr): 0.1646
Pyridoxine log2 ratio (+MMV007839/-MMV007839) (Av 1hr): 0.1656
Pyruvate log2 ratio (+MMV007839/-MMV007839) (Av 1hr): 1.42
Ribose-5-phosphate log2 ratio (+MMV007839/-MMV007839) (Av 1hr): 0.9115
S-Adenosyl-L-homocysteine log2 ratio (+MMV007839/-MMV007839) (Av 1hr): -0.1282
SDGLA log2 ratio (+MMV007839/-MMV007839) (Av 1hr): -0.148
SFGD log2 ratio (+MMV007839/-MMV007839) (Av 1hr): -0.0354
Sedoheptoluse bisphosphate log2 ratio (+MMV007839/-MMV007839) (Av 1hr): 0.6095
Sedoheptulose-1/7-phosphate log2 ratio (+MMV007839/-MMV007839) (Av 1hr): 0.1578
Serine log2 ratio (+MMV007839/-MMV007839) (Av 1hr): 0.004434
Succinate log2 ratio (+MMV007839/-MMV007839) (Av 1hr): 0.4975
Succinate semialdehyde log2 ratio (+MMV007839/-MMV007839) (Av 1hr): -0.3802
TNVK log2 ratio (+MMV007839/-MMV007839) (Av 1hr): -0.9736
Threonine log2 ratio (+MMV007839/-MMV007839) (Av 1hr): 0.4202
Tryptophan log2 ratio (+MMV007839/-MMV007839) (Av 1hr): 0.09509
Tyrosine log2 ratio (+MMV007839/-MMV007839) (Av 1hr): 0.1697
UDP log2 ratio (+MMV007839/-MMV007839) (Av 1hr): -0.1565
UDP-N-acetyl-D-glucosamine log2 ratio (+MMV007839/-MMV007839) (Av 1hr): 0.0845
UDP-glucose log2 ratio (+MMV007839/-MMV007839) (Av 1hr): -0.08513
UMP log2 ratio (+MMV007839/-MMV007839) (Av 1hr): -0.3602
Uracil log2 ratio (+MMV007839/-MMV007839) (Av 1hr): -0.4869
Uric Acid log2 ratio (+MMV007839/-MMV007839) (Av 1hr): 0.02649
VD log2 ratio (+MMV007839/-MMV007839) (Av 1hr): 1.818
Valine log2 ratio (+MMV007839/-MMV007839) (Av 1hr): 0.1364
Xanthine log2 ratio (+MMV007839/-MMV007839) (Av 1hr): 0.3309
dADP log2 ratio (+MMV007839/-MMV007839) (Av 1hr): -0.3244
dATP log2 ratio (+MMV007839/-MMV007839) (Av 1hr): 0.05147
dCDP log2 ratio (+MMV007839/-MMV007839) (Av 1hr): 0.3024
dGMP log2 ratio (+MMV007839/-MMV007839) (Av 1hr): 0.08489
dTMP log2 ratio (+MMV007839/-MMV007839) (Av 1hr): -0.02247
dTTP log2 ratio (+MMV007839/-MMV007839) (Av 1hr): 0.2046
dUMP log2 ratio (+MMV007839/-MMV007839) (Av 1hr): 1.26
myo-Inositol log2 ratio (+MMV007839/-MMV007839) (Av 1hr): -0.07002
sn-Glycerol 3-phosphate log2 ratio (+MMV007839/-MMV007839) (Av 1hr): 1.379
sn-glycero-3-Phospho-1-inositol log2 ratio (+MMV007839/-MMV007839) (Av 1hr): -0.128
Hexose-phosphate log2 ratio (+MMV007839/-MMV007839) (Av 1hr, medRt 15.0954): -0.2585
6-Phospho-D-gluconate log2 ratio (+MMV007839/-MMV007839) (Av 1hr, medRt 16.8944): -0.386
Hexose-phosphate log2 ratio (+MMV007839/-MMV007839) (Av 1hr, medRt 17.0788): -1.607
6-Phospho-D-gluconate log2 ratio (+MMV007839/-MMV007839) (Av 1hr, medRt 17.4636): -0.04985
1-3 (2-3)-diphopshateglycerate log2 ratio (+MMV007839/-MMV007839) (Av 3hr): 0.8355
